pIC50: −log10 of the molar value.

One assay relates to Erk1/2 phosphorylation. Kind of assay: Erk1/2 Phosphorylation Assay (western blot), Panc-1. Format: cell-based, human. Particulars: at 10 μM, * = activation. In short, it runs like this:
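Phospho-Erk1/2 (Thr202/Tyr204) was detected by western blot in lysates of Panc-1 cells (KRas G12D). These had 6 h, 37° C exposure to 10 μM compound or a dilution series for IC50, in 0.3% DMSO. Cells were either starved overnight in 0.5% FBS with a 15-min 1.5 ng/ml EGF pulse, or kept unstimulated in 10% FBS.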

Another assay deals with TNF-alpha. Kind of assay: TNF-alpha Quantification Assay (ELISA), LPS-stimulated RAW 264.7. Format: cell-based. Particulars: Mus musculus, RAW264.7; at 10 μM; read-out: TNFα: % inh. A general note: In an ELISA, binding on a coated surface is turned into a signal by an enzyme label.
For assay [1], the system named is MiaPaca-2 (expressing KRAS G12C mutant). Kind of assay: Proliferation Assay (Cell Viability Assay). Format: cell-based. The settings on record: Homo sapiens, MIA PaCa-2; read-out: Proliferation in MiaPaca-2: IC50. In short, it runs like this:
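After 2–4 days' exposure at 37 °C, 5% CO2 to a single 10 μM final concentration or a dilution series (IC50), percent proliferation inhibition was derived from CellTiter 96 Aqueous One viability readings. The medium contained 0.3% DMSO and 10% FBS. KRAS G12C MiaPaca-2 cells were plated at 2000–5000/well the day before.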

`COc1cc(Nc2nc(-c3nccn3C)nn3cc(-c4ccn(C(C)C)n4)c(-c4ccccc4)c23)ncn1` [Compound 22, 6-(1-Isopropyl-1H-pyrazol-3-yl)-N-(6-methoxypyrimidin-4-yl)-2-(1-methyl-1H-imidazol-2-yl)-5-phenylpyrrolo[2,1-f][1,2,4]triazin-4-amine]: the “% inh of Erk1/2 phosphorylation in Panc-1” value (from here on “% inh”) with Erk1/2 phosphorylation was 0 (0% inhibition). Further, the inhibition at 10 µM with TNF-alpha was 0%. For the same compound, the pIC50 in assay [1] is 6.30 to 6.82.

For the compound `Cc1c(-c2ccn(C(C)C)n2)cn2nc(-c3nccn3C)nc(Nc3noc(C4CC4)n3)c12` [Compound 75, 5-Cyclopropyl-N-(6-(1-isopropyl-1H-pyrazol-3-yl)-5-methyl-2-(1-methyl-1H-imidazol-2-yl)pyrrolo[2,1-f][1,2,4]triazin-4-yl)-1,2,4-oxadiazol-3-amine], the “% inh” value with Erk1/2 phosphorylation is reported as “B (26-49% inhibition)”. Further, the inhibition at 10 µM in the assay with TNF-alpha is 1 to 24%. Moreover, the pIC50 in assay [1] was < 6.00.

On to `COCCO[C@H]1C[C@H](Nc2nc(-c3nccn3C)nn3cc(-c4ccn(C(C)C)n4)c(C)c23)C1` [Compound 92, 6-(1-Isopropyl-1H-pyrazol-3-yl)-N-((1r,3r)-3-(2-methoxyethoxy)cyclobutyl)-5-methyl-2-(1-methyl-1H-imidazol-2-yl)pyrrolo[2,1-f][1,2,4]triazin-4-amine], for which, in the assay with Erk1/2 phosphorylation, the “% inh” value was “A* (1-25% activation)”. The inhibition at 10 µM in the assay on TNF-alpha lay within 1 to 24%. Moreover, the pIC50 in assay [1] is < 6.00.

In the case of `Cc1ccn2nc(-c3nccn3C)nc(N)c12.O=C(O)C(F)(F)F` [Compound 37, 5-Methyl-2-(1-methyl-1H-imidazol-2-yl)pyrrolo[2,1-f][1,2,4]triazin-4-amine trifluoroacetic acid salt], the “% inh” value with Erk1/2 phosphorylation is 0 (0% inhibition). Besides, the inhibition at 10 µM in the assay with TNF-alpha was 0%. The pIC50 in assay [1] was < 6.00.

In the case of `Cc1c(-c2ccn(C(C)C)n2)cn2nc(-c3nccn3C)nc(Nc3ncc(C4CC4)o3)c12` [Compound 90, 5-Cyclopropyl-N-(6-(1-isopropyl-1H-pyrazol-3-yl)-5-methyl-2-(1-methyl-1H-imidazol-2-yl)pyrrolo[2,1-f][1,2,4]triazin-4-yl)oxazol-2-amine], the “% inh” value in the assay on Erk1/2 phosphorylation is “D* (85-100% activation)”. Moreover, the inhibition at 10 µM with TNF-alpha was 1 to 24%. Further, in assay [1], the pIC50 was < 6.00.

`CC(C)n1ccc(-c2cn3nc(-c4nccn4C)nc(O)c3c2-c2ccccc2)n1` [Compound 17, 6-(1-Isopropyl-1H-pyrazol-3-yl)-2-(1-methyl-1H-imidazol-2-yl)-5-phenylpyrrolo[2,1-f][1,2,4]triazin-4-ol]: the “% inh” value in the assay on Erk1/2 phosphorylation is given as “A (1-25% inhibition)”. Also, the inhibition at 10 µM with TNF-alpha lay in the range of 25 to 49%. For the same compound, the pIC50 in assay [1] was < 6.00.

For `COc1ncccc1Nc1nc(-c2nccn2C)nn2cc(-c3ccn(C(C)C)n3)c(C)c12` [Compound 85, 6-(1-Isopropyl-1H-pyrazol-3-yl)-N-(2-methoxypyridin-3-yl)-5-methyl-2-(1-methyl-1H-imidazol-2-yl)pyrrolo[2,1-f][1,2,4]triazin-4-amine], the “% inh” value in the assay with Erk1/2 phosphorylation was “C (50-84% inhibition)”. The inhibition at 10 µM in the assay with TNF-alpha was 50 to 74%. Besides, the pIC50 in assay [1] was < 6.00.

Turning to `COCC1CCN(c2nc(-c3nccn3C)nn3cc(-c4ccn(C(C)C)n4)c(-c4ccccc4)c23)C1.Cl` (racemic) [Compound 19, rac 6-(1-Isopropyl-1H-pyrazol-3-yl)-4-(3-(methoxymethyl)pyrrolidin-1-yl)-2-(1-methyl-1H-imidazol-2-yl)-5-phenylpyrrolo[2,1-f][1,2,4]triazine hydrochloride salt], the “% inh” value with Erk1/2 phosphorylation was 0 (0% inhibition). Besides, in the assay with TNF-alpha, the inhibition at 10 µM is 25 to 49%. In addition, the pIC50 in assay [1] was < 6.00.

The values are drawn from US12459951B2, “Compounds that interact with RAS superfamily proteins for treatment of cancers, inflammatory diseases, rasopathies, and fibrotic disease” (SHY Therapeutics, LLC, priority 2022, dated 2025).
